From article PMC9127501 (Frontiers in Microbiology, 2022)
Several values for one entry are separate records, joined by “and”; a condition that tells them apart may be missing. Equal values may be shown once. Read-outs that look alike come from different tables or passages of the source.

How the values were obtained:
in vitro [1] = conditions: human
recombinant SCoV-2 PLpro = recombinant SCoV-2 PLpro (Severe acute respiratory syndrome coronavirus 2, UniProt P0DTD1); assay: SCoV-2 PLpro inhibition assay (peptide-AMC fluorescence); assay type: biochemical, SARS-CoV-2; conditions: 60 μM peptide-AMC, 37°C, 45 min
HCoV-229E [2] = assay: MTT-based antiviral assay (protection from virus-induced CPE) in HCoV-229E-infected MRC-5 cells; assay type: cell-based, Human Coronavirus strain 229E; conditions: for maximum antiviral effect: MRC-5, maximum over concentrations tested; for % Antiviral Activity (Range) / EC50: HCoV-229E-infected MRC-5, 6 days; for % Antiviral Activity (Range): range over the assay conc. range of each compound; for EC50: MRC5, 144 h, no unit in head (assay conc. and CC50 columns in µM)
SCoV-2 [3] = test system: SCoV-2; set-up: method as in Meyer et al., [2020]; conditions: at clinically relevant concentrations; ref Meyer et al., [2020]; cited from earlier work
HCoV-229E [4] = assay: qRT-PCR viral load in supernatants of HCoV-229E-infected MRC-5 cells; assay type: cell-based, Human Coronavirus strain 229E
PLpro = conditions: reported value, reference not printed at the place; cited from earlier work
SCoV-2 [5] = assay: Immunofluorescence antiviral screening assay (SCoV-2 nucleocapsid staining) in Vero E6 cells; assay type: cell-based, SARS-CoV-2
Procedure: The antiviral activity of the selected compound against SCoV-2 was analysed by immunofluorescent assay in a 96-well plate. For this, ~10^4 Vero E6 cells per well were seeded and grown to ≥80% confluency. At this stage, cells in replicate wells were treated with a safe dose (identified from the cytotoxicity studies) of the selected compound or with 10μM Remdesivir. These assays also included the necessary negative controls for comparison. The cells were infected with SCoV-2 at 0.1 MOI and, post-30 h incubation, fixed in 4% paraformaldehyde, permeabilized with 0.3% Tween-20 and stained with anti-mouse mAb specific to SCoV-2 Nucleocapsid (primary) followed by staining with Alexafluor 568-labelled anti-mouse antibody (secondary). Prior to mounting, monolayers were treated with Hoechst 33342 to stain the nuclei and the images were captured using ImageXpress Micro Confocal (Molecular devices) at 10 × magnification (16 images/well). The data was analysed in MetaXpress software using a multi-wavelength cell scoring module and the cells double-positive for the viral nucleocapsid as well as nuclei were counted and compared with that in the controls.

[6] = Cytotoxicity assay in Vero E6 cells (Hoechst 33342 / Sytox orange imaging); conditions: African green monkey
Vero E6 cells = assay: as above; conditions: for cytotoxicity: Vero E6
in vitro [7] = conditions: African green monkey, % Cell Viability, Vero E6, 30 h
[8] = MRC-5 cells (human lung fibroblasts), uninfected
[9] = MRC-5, across the tested concentrations
[10] = HCoV-229E-infected MRC-5, 6 days, range over the assay conc. range

C[C@H]1O[C@H](O[C@H]2[C@H](O)[C@@H](O)[C@@H](O[C@H]3[C@H](O)[C@@H](O)C(O)O[C@@H]3CO)O[C@@H]2CO)[C@H](O)[C@@H](O)[C@@H]1N[C@H]1C=C(CO)[C@@H](O)[C@H](O)[C@H]1O (stereo partly shown) [Acarbose]
CC50 at 6 days (in vitro [1]): > 7750 µM | cytotoxicity at 6 days (in vitro [1]): -15 to 7% | maximum cytotoxicity (MRC-5 cells; human): < 15% | IC50 (recombinant SCoV-2 PLpro; IC50, 100 nM PLpro): 2000 ± 280 µM | maximum antiviral effect (HCoV-229E [2]; HCoV-229E): about 8% | % Antiviral Activity (Range) (HCoV-229E [2]): +0.3 to +7.2% | EC50 (HCoV-229E [2]; Human coronavirus 229E): > 7750 µM

CC(C)CN(C[C@@H](O)[C@H](Cc1ccccc1)NC(=O)O[C@H]1CO[C@H]2OCC[C@H]21)S(=O)(=O)c1ccc(N)cc1 [Darunavir]
cytotoxicity (in vitro [1]): -14.4 to 97.2% | viability (in vitro [1]): 44.5% | activity against SCoV-2 (in words) (SCoV-2 [3]): completely ineffective | % Reduction in Viral Load (Range) (HCoV-229E [4]): 0.0 to +97.6% | Log10 Reduction in Viral Load (Range) (HCoV-229E [4]): 0.0 to +1.62 Log10 | log10 inhibition / reduction in viral load (HCoV-229E [4]): 1.42 log10 | reduction in viral titers (HCoV-229E [4]): about 96% | IC50 (recombinant SCoV-2 PLpro; 100 nM PLpro, read-out: IC50): 1320 ± 200 µM

Cc1cc2nc3c(=O)[nH]c(=O)nc-3n(C[C@H](O)[C@H](O)[C@H](O)COP(=O)(O)OP(=O)(O)OC[C@H]3O[C@@H](n4cnc5c(N)ncnc54)[C@H](O)[C@@H]3O)c2cc1C [FAD, Flavin adenine dinucleotide]
CC50 at 6 days (in vitro [1]; [8]): > 1200 µM | cytotoxicity at 6 days (in vitro [1]; [8]): -10.5 to 12.7% | maximum cytotoxicity (MRC-5 cells; [9]): < 15% | IC50 (recombinant SCoV-2 PLpro; IC50, 100 nM PLpro): ~127 µM and 127 µM | maximum antiviral effect (HCoV-229E [2]; HCoV-229E): about 8% | % Antiviral Activity (Range) (HCoV-229E [2]): -1.3 to +8.1% | EC50 (HCoV-229E [2]; Human coronavirus 229E): > 1200 µM

NC(=O)c1nc(F)c[nH]c1=O [Favipiravir]
CC50 at 6 days (in vitro [1]): 665 µM | cytotoxicity at 6 days (in vitro [1]): -8.1 to 67.5% | % Reduction in Viral Load (Range) (HCoV-229E [4]; [10]): 0.0 to +81.6% | Log10 Reduction in Viral Load (Range) (HCoV-229E [4]; [10]): +0.74 to 0.0 Log10 | protection from virus-induced CPE (HCoV-229E [2]; 250 μM, HCoV-229E, MRC-5): failed to show any obvious protection | % Antiviral Activity (Range) (HCoV-229E [2]): -0.6 to +26.9% | inhibition at 500 µM (HCoV-229E [2]; Human coronavirus 229E, MRC5, 500 μM, HCoV-229E, MRC-5, read-out: cells in which virus-induced CPE was inhibited): ~17%

Cc1ccc(N)cc1C(=O)N[C@H](C)c1cccc2ccccc12 [GRL0617, (R)-5-amino-2-methyl-N-(1-(naphthalen-1-yl)ethyl) benzamide]
CC50 at 6 days (in vitro [1]): 137 µM | cytotoxicity at 6 days (in vitro [1]): 6.2 to 76% | % Reduction in Viral Load (Range) (HCoV-229E [4]; [10]): Inconsistent | Log10 Reduction in Viral Load (Range) (HCoV-229E [4]; [10]): Inconsistent | IC50 (PLpro): […] | % Antiviral Activity (Range) (HCoV-229E [2]): -1.9 to +33.7%

OC[C@@H](O)[C@@H](O[C@@H]1O[C@H](CO)[C@H](O)[C@H](O)[C@H]1O)[C@H](O)[C@@H](O)CO [Lactitol]
CC50 at 6 days (in vitro [1]; [8]): > 2900 µM | cytotoxicity at 6 days (in vitro [1]; [8]): -8.9 to 1.8% | maximum cytotoxicity (MRC-5 cells; [9]): < 15% | IC50 (recombinant SCoV-2 PLpro; IC50, 100 nM PLpro): 8800 ± 500 µM | maximum antiviral effect (HCoV-229E [2]; HCoV-229E): about 8% | % Antiviral Activity (Range) (HCoV-229E [2]): -1.2 to +5.3% | EC50 (HCoV-229E [2]; Human coronavirus 229E): > 2900 µM

Cc1cccc(C)c1OCC(=O)N[C@@H](Cc1ccccc1)[C@@H](O)C[C@H](Cc1ccccc1)NC(=O)[C@H](C(C)C)N1CCCNC1=O [Lopinavir]
CC50 at 6 days (in vitro [1]): 67 µM | cytotoxicity at 6 days (in vitro [1]): -9.6 to 99.9% | log10 inhibition / reduction in viral load (HCoV-229E [4]; 40 μM, HCoV-229E, MRC-5): ~ 1.4 log10 and 1.42 log10 | reduction in viral titers (HCoV-229E [4]; 40 μM, HCoV-229E, MRC-5): about 96% | % Reduction in Viral Load (Range) (HCoV-229E [4]; [10]): +96.2 to +29.1% | Log10 Reduction in Viral Load (Range) (HCoV-229E [4]; [10]): +1.42 to +0.15 Log10 | IC50 (recombinant SCoV-2 PLpro; IC50, 100 nM PLpro): 1000 ± 100 µM | Selectivity Index (CC50/EC50) (HCoV-229E [2]; HCoV-229E, MRC-5): 2.03 | % Antiviral Activity (Range) (HCoV-229E [2]): -6.3 to +72.4% | EC50 (HCoV-229E [2]; Human coronavirus 229E): 33 µM

OC(c1cc(C(F)(F)F)nc2c(C(F)(F)F)cccc12)C1CCCCN1 (stereo not shown) [Mefloquine]
% Inhibition (SCoV-2 N-positive cells) (SCoV-2 [5]; 0.5 µM (500 nM), SCoV-2-infected Vero E6, 30 h, 0.5 µM): 30% and 30.6% | inhibition at 0.5 µM (SCoV-2 [5]; Severe acute respiratory syndrome coronavirus 2, Vero C1008, 30 h, read-out: % Inhibition (SCoV-2 N-positive cells), 0.5 µM (500 nM), SCoV-2-infected Vero E6, 30 h): ~31% | CC50 at 6 days (in vitro [1]; [8]): 173 µM | cytotoxicity at 6 days (in vitro [1]; [8]): 11.5 to 93.2% | viability at 30 h, 0.5 µM [6]: 93.2% | viability at 30 h, 5 µM [6]: 45.6% | cytotoxicity (Vero E6 cells; 0.5 μM): 7% | cytotoxicity (Vero E6 cells; 5 μM): about 45% | log10 inhibition of viral titers (HCoV-229E [4]; 120 μM, HCoV-229E, MRC-5): ~0.8 log10 | reduction in viral titers (HCoV-229E [4]; 120 μM, HCoV-229E, MRC-5): 84.7% | % Reduction in Viral Load (Range) (HCoV-229E [4]; [10]): +84.7 to +38.4% | Log10 Reduction in Viral Load (Range) (HCoV-229E [4]; [10]): +0.81 to +0.21 Log10 | IC50 (recombinant SCoV-2 PLpro; IC50, 100 nM PLpro): ~459 µM and 459 µM | protection from virus-induced CPE (HCoV-229E [2]; 120 μM, HCoV-229E, MRC-5): ~ 62% and ~ 60% | % Antiviral Activity (Range) (HCoV-229E [2]): -0.4 to +60.6% | EC50 (HCoV-229E [2]; Human coronavirus 229E): 108 µM

CCC(CC)COC(=O)[C@H](C)N[P@](=O)(OC[C@H]1O[C@@](C#N)(c2ccc3c(N)ncnn23)[C@H](O)[C@@H]1O)Oc1ccccc1 [Remdesivir]
% Inhibition (SCoV-2 N-positive cells) (SCoV-2 [5]; 10 µM, SCoV-2-infected Vero E6, 30 h): 99.2% | cells protected from SCoV-2-induced CPE (SCoV-2 [5]; 10 μM, Vero E6): > 99% | inhibition at 10 µM (SCoV-2 [5]; Severe acute respiratory syndrome coronavirus 2, Vero C1008, 30 h, 10 µM, SCoV-2-infected Vero E6, 30 h, read-out: % Inhibition (SCoV-2 N-positive cells)): > 99% | % Cell Viability (Vero E6 cells; 10 µM, Vero E6, 30 h): 99.23% | viability at 10 µM (in vitro [7]): > 99%

CC(C)c1nc(CN(C)C(=O)N[C@H](C(=O)N[C@@H](Cc2ccccc2)C[C@H](O)[C@H](Cc2ccccc2)NC(=O)OCc2cncs2)C(C)C)cs1 [Ritonavir]
cytotoxicity at 6 days (in vitro [1]; [8]): 20.6 to 100% | log10 inhibition / reduction in viral load (HCoV-229E [4]; 70 μM, HCoV-229E, MRC-5): ~0.6 log10 | reduction in viral titers (HCoV-229E [4]; 70 μM, HCoV-229E, MRC-5): 73.3% | % Reduction in Viral Load (Range) (HCoV-229E [4]; [10]): +73.3 to -625.5% | Log10 Reduction in Viral Load (Range) (HCoV-229E [4]; [10]): +0.57 to -0.86 Log10 | protection from virus-induced CPE (HCoV-229E [2]; 70 μM, HCoV-229E, MRC-5): about 35% | % Antiviral Activity (Range) (HCoV-229E [2]): -3.8 to +36.4%

C[C@@H]1O[C@@H](OC[C@H]2O[C@@H](Oc3c(-c4ccc(O)c(O)c4)oc4cc(O)cc(O)c4c3=O)[C@H](O)[C@@H](O)[C@@H]2O)[C@H](O)[C@H](O)[C@H]1O [Rutin]
CC50 (in vitro [1]): 351 µM | cytotoxicity (in vitro [1]): -5.9 to 89.5% | log10 inhibition / reduction in viral titers (HCoV-229E [4]): ~0.2 log10 | reduction in viral titers (HCoV-229E [4]): 38.44% | % Reduction in Viral Load (Range) (HCoV-229E [4]; [10]): +38.4 to -455.4% | Log10 Reduction in Viral Load (Range) (HCoV-229E [4]; [10]): +0.21 to -0.74 Log10 | virus-infected cells protected from virus-induced CPE (HCoV-229E [2]; HCoV-229E, MRC-5, concentration not stated at the place): about 37% | % Antiviral Activity (Range) (HCoV-229E [2]): -1.1 to +37.1%
